Experimental data taken from the supplement of paper PMC10331698.
± gives the standard deviation of the averaged measurements.

Legend:
Test in all cases: level (log10 ratio to DMSO vehicle control); higher = higher biomarker level / cell amount than vehicle control
Conditions in all cases: in DMSO
[1] = compound: FC(F)(F)C(F)(F)C(F)(F)CC1CO1 [1H,1H-Heptafluorobutyl epoxide]
Method: (§1)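 BioMAP Diversity Plus panel of 12 human primary cell co-culture systems (3C, 4H, LPS, SAg, BT, BF4T, BE3C, CASM3C, HDF3CGF, KF3CT, MyoF, Mphg). Compounds were added 1 h before stimulation and left for 24 h (MyoF 48 h; BT 72 h for soluble read-outs or 6 d for IgG). Biomarkers were read by ELISA, cytotoxicity by SRB, PBMC viability and proliferation by Alamar Blue. Each well value was divided by the mean of 8 DMSO control wells on the same plate and log10 transformed; duplicate blinded samples were tested at 4 concentrations.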

Heptafluorobutyl iodide = compound: FC(F)(F)C(F)(F)C(F)(F)CI [Heptafluorobutyl iodide]
Method: as §1

[2] = compound: NC(=O)C(F)(F)C(F)(F)C(F)(F)C(F)F
Method: as §1

[3] = compound: NS(=O)(=O)C(F)(F)C(F)(F)C(F)(F)C(F)(F)C(F)(F)C(F)(F)F [Perfluorohexanesulfonamide]
Method: as §1

[4] = compound: O=C(O)C=CC(F)(C(F)(F)F)C(F)(F)F [3-(Perfluoroisopropyl)-2-propenoic acid]
Method: as §1

[5] = compound: O=S(=O)(F)C(F)(F)C(F)(F)C(F)(F)C(F)(F)C(F)(F)C(F)(F)C(F)(F)C(F)(F)F [Perfluorooctanesulfonyl fluoride]
Method: as §1

Test System	level (log10) ([1]; 6700 nM)	level (log10) ([1]; 20000 nM)	level (log10) ([1]; 60000 nM)	level (log10) (Heptafluorobutyl iodide; 6700 nM)	level (log10) (Heptafluorobutyl iodide; 20000 nM)	level (log10) (Heptafluorobutyl iodide; 60000 nM)	level (log10) ([2]; 6700 nM)	level (log10) ([2]; 20000 nM)	level (log10) ([2]; 60000 nM)	level (log10) ([3]; 6700 nM)	level (log10) ([3]; 20000 nM)	level (log10) ([3]; 60000 nM)	level (log10) ([4]; 6700 nM)	level (log10) ([4]; 20000 nM)	level (log10) ([4]; 60000 nM)	level (log10) ([5]; 6700 nM)	level (log10) ([5]; 20000 nM)	level (log10) ([5]; 60000 nM)
SAg:Proliferation	-0.0295 ± 0.059	0.017 ± 0.059	0.055 ± 0.054	-0.056 ± 0.037	0.029 ± 0.028	-0.072 ± 0.0042	-0.0135 ± 0.018	0.0105 ± 0.0064	0.033 ± 0.018	0.0045 ± 0.0035	-0.016 ± 0.013	-0.0695 ± 0.019	0.009 ± 0.016	-0.008 ± 0.037	0.008 ± 0.04	-0.0275 ± 0.0035	-0.0095 ± 0.049	0.0025 ± 0.019
SAg:SRB	0.0065 ± 0.026	-0.0065 ± 0.0092	-0.0115 ± 0.011	-0.007 ± 0.0099	-0.001 ± 0.0042	0.002 ± 0.011	-0.0225 ± 0.0035	-0.02 ± 0.0028	-0.015 ± 0.021	-0.003 ± 0.0028	-0.001 ± 0.0028	-0.094 ± 0.021	-0.001 ± 0.0042	-0.007 ± 0.025	-0.0065 ± 0.028	0.0055 ± 0.0064	0.0005 ± 0.0021	0.0015 ± 0.0035
